Values of other authors, collected in patent US6761879B1, “Titanium derived compounds, preparation and use thereof” (Sanofi-Synthelabo, priority 1999, dated 2004).

How the values were obtained:
[1] = in particular in aqueous solution
[2] = known from prior art

[F][Ti]([F])([F])[F] [titanium tetrafluoride]
pH in aqueous solution: about 1.5 | stability [1]: relatively unstable | formation of an amorphous protective layer (glaze) at the surface of the enamel of the tooth [2]: forming an amorphous protective layer
